Reference: US8080547B2, “Triazolopyridine carboxamide derivatives and triazolopyrimidine carboxamide derivatives, preparation thereof and therapeutic use thereof” (Sanofi-Aventis, priority 2007, dated 2011)

Key:
[1] = molecular target: T1, FAAH (Fatty Acid Amide Hydrolase) enzyme (Mus musculus, UniProt O08914); assay: radioenzymatic assay of [3H]anandamide hydrolysis by FAAH; type: biochemical; settings: mouse brain homogenate; 20 min preincubation; 10 μM anandamide; read-out: IC50 (concentration which inhibits 50% of the control enzyme activity of FAAH)
T1 construct: the source of FAAH enzyme is a mouse brain homogenate from which the cerebellum and the medulla oblongata have been removed; from tissue; host or cells: mouse brain homogenate (cerebellum and medulla oblongata removed)
T1 sequence (O08914 1-579): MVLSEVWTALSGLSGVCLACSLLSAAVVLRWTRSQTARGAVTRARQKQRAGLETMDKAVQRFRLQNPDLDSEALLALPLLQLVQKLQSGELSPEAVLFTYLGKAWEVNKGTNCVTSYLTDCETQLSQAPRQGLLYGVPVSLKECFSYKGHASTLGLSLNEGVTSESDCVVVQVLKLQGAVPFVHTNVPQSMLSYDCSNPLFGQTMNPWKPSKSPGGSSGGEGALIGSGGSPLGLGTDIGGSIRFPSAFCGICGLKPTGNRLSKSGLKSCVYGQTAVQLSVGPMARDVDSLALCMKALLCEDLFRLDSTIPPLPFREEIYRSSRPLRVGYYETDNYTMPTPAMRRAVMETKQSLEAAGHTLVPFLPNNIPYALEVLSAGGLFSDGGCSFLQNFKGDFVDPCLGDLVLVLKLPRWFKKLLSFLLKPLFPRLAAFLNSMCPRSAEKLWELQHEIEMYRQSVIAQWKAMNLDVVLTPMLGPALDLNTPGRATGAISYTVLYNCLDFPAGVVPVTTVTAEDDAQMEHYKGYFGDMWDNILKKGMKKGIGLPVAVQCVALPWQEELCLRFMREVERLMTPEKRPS
Procedure: Tests comprised measuring the activity, in vitro, of the compounds of the invention on the FAAH enzyme.
The inhibitory activity was measured in a radioenzymatic assay based on measuring the product of hydrolysis (ethanolamine [1-3H]) of anandamide by FAAH (Life Science (1995), 56, 1999-2005 and Journal of Pharmacology and Experimented Therapeutics (1997), 283, 729-734). The products of hydrolysis of [^3H]anandamide, labeled on ethanolamine, are arachidonic acid and [^3H]ethanolamine and the source of FAAH enzyme is a mouse brain homogenate from which the cerebellum and the medulla oblongata have been removed. The mouse brains are removed, and stored at −80° C. until they are used or homogenized immediately for twice 5 seconds using a Precellys apparatus at 5000 rpm (Bertin) in a 10 mM Tris-HCl, 150 mM NaCl, 1 mM EDTA buffer (pH 8) at 4° C. The concentration of the homogenates is then adjusted to 20 μg/μl.
(§1) The dilution series of the compounds is prepared from stock solutions at 20 mM in 100% DMSO. […]
(§2) Assaying of the FAAH activity is carried out in a 96-well microplate in a final reaction volume of 70 μl. […] After stirring for 10 minutes, the microplate is centrifuged for 15 minutes at 4000 g and a 30 μl aliquot of the aqueous phase containing the [^3H]ethanolamine produced is removed and then counted for 5 minutes by liquid scintillation (Wallac 1450 Microbeta).

[2] = molecular target: T2, MGL (monoacyl glycerol lipase) enzyme (Mus musculus, UniProt O35678); assay: radioenzymatic assay of [3H] 2-OG hydrolysis by MGL; type: biochemical; settings: mouse brain homogenate; 20 min preincubation; 50 μM 2-OG; read-out: IC50 (concentration inhibiting 50% of the control enzyme activity of MGL)
T2 construct: the source of MGL enzyme is a mouse brain homogenate from which the cerebellum and the medulla oblongata have been removed; from tissue; host or cells: mouse brain homogenate (cerebellum and medulla oblongata removed)
T2 sequence (O35678 1-303): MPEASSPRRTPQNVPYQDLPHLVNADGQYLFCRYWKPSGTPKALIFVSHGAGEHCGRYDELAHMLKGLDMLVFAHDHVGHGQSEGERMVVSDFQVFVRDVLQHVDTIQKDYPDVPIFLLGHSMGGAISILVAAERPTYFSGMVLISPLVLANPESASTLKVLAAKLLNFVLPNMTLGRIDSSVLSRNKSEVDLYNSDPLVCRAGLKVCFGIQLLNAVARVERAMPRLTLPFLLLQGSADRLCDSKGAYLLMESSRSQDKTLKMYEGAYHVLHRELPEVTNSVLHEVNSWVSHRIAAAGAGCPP
Procedure: Tests comprised measuring the activity, in vitro, of the compounds of the invention on the MGL enzyme.
The inhibitory activity was measured in a radioenzymatic assay based on measuring the product of hydrolysis of 2-oleoyl glycerol ([^3H] 2-OG) by MGL. The products of hydrolysis of [^3H] 2-OG, labeled on the glycerol, are oleic acid and [^3H]glycerol, and the source of MGL enzyme is a mouse brain homogenate from which the cerebellum and the medulla oblongata have been removed. The mouse brains are removed, and stored at −80° C. until they are used or homogenized immediately for twice 5 seconds using a Precellys apparatus at 5000 rpm (Bertin) in a 10 mM Tris-HCl, 150 mM NaCl, 1 mM EDTA buffer (pH 8) at 4° C. The concentration of the homogenates is then adjusted to 7.5 μg/μl.
as §1
as §2, with “MGL” for “FAAH”, “100” for “70”, “[^3H]glycerol” for “[^3H]ethanolamine”, “Microbeta). […]” for “Microbeta).”

Row | melting point [°C] | IC50 [1] [nM] | IC50 [2] [nM] | Structure (SMILES)
1 | 158 to 160 | – | – | O=C(N1CCN(c2cccc(C(F)(F)F)c2)CC1)n1nnc2ccc(N3CCCC3)nc21 [compound 3, (5-pyrrolidin-1-yl[1,2,3]triazolo[4,5-b]pyridin-3-yl)[4-(3-trifluoromethylphenyl)piperazin-1-yl]methanone]
2 | 172 to 174 | 10 | 4 | O=C(N1CCN(c2cccc(C(F)(F)F)c2)CC1)n1nnc2ccc(N3CCOCC3)nc21 [compound 1, (5-morpholin-4-yl[1,2,3]triazolo[4,5-b]pyridin-3-yl)[4-(3-trifluoromethylphenyl)piperazin-1-yl]methanone]
3 | 141 to 143 | – | – | O=C(N1CCN(c2ccc(C(F)(F)F)cc2)CC1)n1nnc2ccc(N3CCC(F)(F)C3)nc21 [compound 4, [5-(3,3-difluoropyrrolidin-1-yl)[1,2,3]triazolo[4,5-b]pyridin-3-yl)[4-(4-trifluoromethylphenyl)piperazin-1-yl]methanone]
4 | 138 to 140 | – | – | COc1ccc(N2CCN(C(=O)n3nnc4ccc(N5CCCC5)nc43)CC2)cc1 [Compound No. 2, [4-(4-Methoxyphenyl)piperazin-1-yl](5-pyrrolidin-1-yl[1,2,3]triazolo[4,5-b]-pyridin-3-yl)methanone]
